Assay results published in patent publication US8097733B2, “Pyrazole derivatives as 5-LO-inhibitors” (Pfizer Inc., priority 2007, dated 2012).

Columns and labels:
[1] = target: T1, recombinant human 5-LOX (Homo sapiens, UniProt P09917); test: Fluorescence Intensity 5-LOX Enzyme Assay; format: biochemical; conditions: crude lysate of recombinant human 5-LOX; highest inhibitor concentration tested typically 25 μM
T1 sequence (P09917 1-674): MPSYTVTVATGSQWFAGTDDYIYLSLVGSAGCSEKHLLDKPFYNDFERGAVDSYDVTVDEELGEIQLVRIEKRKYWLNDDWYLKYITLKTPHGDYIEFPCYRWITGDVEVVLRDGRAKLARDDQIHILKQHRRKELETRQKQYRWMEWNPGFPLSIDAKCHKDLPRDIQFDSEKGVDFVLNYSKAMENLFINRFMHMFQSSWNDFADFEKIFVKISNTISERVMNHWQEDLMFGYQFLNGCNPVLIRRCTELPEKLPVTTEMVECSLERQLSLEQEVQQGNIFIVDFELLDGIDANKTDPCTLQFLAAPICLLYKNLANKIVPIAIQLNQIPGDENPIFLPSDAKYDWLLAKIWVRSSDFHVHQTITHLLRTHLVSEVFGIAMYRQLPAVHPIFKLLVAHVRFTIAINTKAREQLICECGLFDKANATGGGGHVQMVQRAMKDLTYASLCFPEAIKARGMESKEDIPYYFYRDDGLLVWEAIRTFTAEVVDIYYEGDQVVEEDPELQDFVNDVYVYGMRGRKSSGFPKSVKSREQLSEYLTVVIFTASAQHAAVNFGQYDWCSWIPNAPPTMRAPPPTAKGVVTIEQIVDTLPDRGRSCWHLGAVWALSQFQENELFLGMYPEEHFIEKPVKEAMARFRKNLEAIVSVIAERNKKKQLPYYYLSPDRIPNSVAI
Source text: Bio Data Assays for Allergic and Non Allergic Airways Diseases Fluorescence Intensity 5-LOX Enzyme Assay
The enzyme assay is based on the oxidation of the non-fluorescent compound 2′7′-dichlorodihydrofluorescein diacetate (H2DCFDA) to the fluorescent 2′,7′-dichlorofluorescein by 5-LOX in an arachidonic acid-dependent reaction. Ester cleavage of the acetate groups of the substrate H2DCFDA must occur prior to oxidation. This is achieved through use of a crude cell lysate preparation of recombinant human 5-LOX. The enzyme assay ([…]) contained 50 mM Tris (pH 7.5), 2 mM CaCl2, 2 mM EDTA, 3 μM arachidonic acid (Nu-Chek Prep; #S-1133), 10 μM ATP, 10 μM H2DCFDA (Invitrogen; #D399), inhibitor (varying concentration) and recombinant human 5-LOX enzyme (1.25 μL crude lysate per well).
Inhibitors (dissolved in DMSO) were plated into a 384-well assay plate (Corning #3654) at 1 μL followed by a 20 μL addition of a solution containing 5-LO enzyme and H2DCFDA. Enzyme and H2DCFDA were pre-incubated for 5 min to allow time for acetate group cleavage of the dye prior to addition to the assay plate. After a 10 min pre-incubation of inhibitor and enzyme/dye mix, the assay was initiated by the addition of a substrate solution containing arachidonic acid and ATP. The enzymatic reaction was run for 20 min at room temperature and terminated by the addition of 40 μL of acetonitrile. Assay plates were read in a plate reader using standard wavelengths for fluorescein. IC50s of inhibitors were calculated using a 4-parameter fit using 7 inhibitor concentrations in duplicate with 3-fold serial dilutions. Controls on each plate included no inhibitor (zero percent effect) and 25 μM C J-13610 (one hundred percent effect). The highest inhibitor concentration tested was typically 25 μM. The final DMSO concentration in the assay was 2.5%.

[2] = test system: human whole blood (leukotriene and prostaglandin levels); test: Eicosanoid production from human whole blood; format: cell-based; conditions: human whole blood stimulated with calcium ionophore A23187 and arachidonic acid; ELISA
Experimental: Human whole blood is collected in 10 ml heparin tubes (Vacutainer, Becton Dickenson). Collected blood is pooled and 80 μL is dispensed into each well of 384 well polypropylene plates. A PlateMate is used to add 2 μL of compound solution in DMSO to the 80 μL of blood in the polypropylene plates. The plate, with blood and compound added, is incubated at room temperature for 10 minutes. 2 μL of a calcimycin (800 ng/ml) (A23187 C-7522, Sigma) and arachidonic acid (30 μM) (NU-Chek PREP, INC. S-1133) solution in 60% ethanol is then added to the blood using a Micromultidrop. The plates are then incubated at 37° C. in a shallow water bath for 15 minutes. Plates are then spun at 800 g for 10 minutes at 4° C. Supernatant is removed and assayed by Elisa (Caymen Chemical).
Eicosanoid Production from Human Whole Blood:
Human whole blood was collected from healthy or asthmatic human donors in 10 ml heparinized tubes (Vacutainer tubes; Becton Dickenson, Franklin Lakes, N.J.). Collected blood was pooled and 80 μL was dispensed into each well of 384 well polypropylene plates using a Multi-prop™ 384-well dispenser (Titertek, Huntsville, Ala.). Varying concentrations of compounds were dissolved in DMSO then 2 μL/well was added to the blood using a PlateMate Plus™ automated pipetting station (Matrix Technologies, Hudson, N.H.). The compounds were preincubated with the blood at room temperature for 10 minutes followed by stimulation with 40 μM calcium ionophore (A23187, Sigma Chemical Co, St. Louis, Mo., Cat. # C-7522) and 30 μM arachidonic acid (S-1133, NU-Chek PREP, Inc., Elysian, MN, Cat. # S-1133) dissolved in 60% ethanol. After 15 min incubation at 37° C. in a shallow water bath, the blood was centrifuged at 8009 for 10 minutes at 4° C., the supernatants collected, and leukotriene and prostaglandin levels measured by ELISA according to the manufacturer's directions (Cayman Chemical Company, Ann Arbor, Mich.). The assay was performed at a final concentration of 2.5% DMSO.

[3] = test system: eicosanoid production in the rat air pouch; test: Carrageenan-induced eicosanoid production in the rat air pouch; format: in vivo; conditions: po, male Lewis rats, 3 mpk by gavage 1 hour prior to carrageenan
Experimental: Carrageenan-Induced Eicosanoid Production in the Rat Air Pouch:
Male Lewis rats (175-200 g), Charles River Laboratories, Wilmington, Mass.) were used in the study. Air pouches were produced by subcutaneous injection of 20 ml of sterile air into the intrascapular area of the back. Pouches were allowed to develop for 1 day. Animals (6 per group) were fasted with free access to water for 16 to 24 hours prior to drug administration. Drugs or vehicle were administered by gavage 1 hour prior to injection of 2 ml of a 1% suspension of carrageenan (FMC BioPolymer, Philadelphia, Pa., Cat. # GP209-NF) dissolved in saline into the pouch. At 3 hours post-carrageenan injection, 1 ml of 50 μg/ml calcium ionophore in saline (A23187, Sigma Chemical Co, St. Louis, M, Cat. #C-7522) was injected into the pouch and the pouch fluid collected 10 minutes later by lavage. The fluid was centrifuged at 3500 rpm for 10 minutes at 4° C., and the supernatants were collected for analysis. Leukotriene and prostaglandin levels were quantitated by ELISA according to the manufacturer's directions (Cayman Chemical Company, Ann Arbor, Mi).

SMILES	IC50 [1] [nM]	IC50 [2] [nM]	inhibition at 3 mg/kg [3] [%]
Cn1nccc1-c1ccc(Sc2c(F)ccc(C3(C(N)=O)CCOCC3)c2F)cc1 [Example 20, 4-(2,4-difluoro-3-{[4-(1-methyl-1H-pyrazol-5-yl)phenyl]thio}phenyl)-tetrahydro-2H-pyran-4-carboxamide]	225	448	91
Cn1nccc1-c1ccc([S+]([O-])c2cccc(C3(C(N)=O)CCOCC3)c2)cc1 (stereo not drawn) [Example 50, 4-(3-{[4-(1-methyl-1H-pyrazol-5-yl)phenyl]sulfinyl}phenyl)tetrahydro-2H-pyran-4-carboxamide]	≥ 25000		12
C[C@H]1C[C@@](C(N)=O)(c2cc(F)cc(Sc3ccc(-c4ccnn4C)c(F)c3)c2)CCO1 [Example 32, (2S,4R)-4-(3-fluoro-5-(3-fluoro-4-(1-methyl-1H-pyrazol-5-yl)phenylthio)phenyl)-2-methyl-tetrahydro-2H-pyran-4-carboxamide]	16.8	232	
Cn1nccc1-c1ccc(Sc2cccc(C3(C#N)CCOCC3)c2)cc1 [Example 49, 4-(3-{[4-(1-methyl-1H-pyrazol-5-yl)phenyl]thio}phenyl)tetrahydro-2H-pyran-4-carbonitrile]	2710	999	
Cn1nccc1-c1ccc(Sc2cccc(C3(C(N)=O)CCOCC3)c2F)cc1 [17(7), 4-(2-fluoro-3-{[4-(1-methyl-1H-pyrazol-5-yl)phenyl]thio}-phenyl)tetrahydro-2H-pyran-4-carboxamide]	126	256	
C[C@H]1C[C@@](C#N)(c2cccc(Sc3ccc(-c4ccnn4C)cc3F)c2F)CCO1 [Example 25]	32.9	83.6	
Cn1nccc1C(=O)c1ccc(Sc2cccc(C3(C(N)=O)CCOCC3)c2)c(Cl)c1 [Example 68, 4-[3-({2-chloro-4-[(1-methyl-1H-pyrazol-5-yl)carbonyl]phenyl}thio)phenyl]tetrahydro-2H-pyran-4-carboxamide]	803	2480	
Cn1nccc1-c1ccc(Sc2cccc(C3(C(N)=O)CCOCC3)c2)c(F)c1 [Example 12, 4-(3-{[2-Fluoro-4-(1-methyl-1H-pyrazol-5-yl)phenyl]thio}phenyl)tetrahydro-2H-pyran-4-carboxamide]	454	267	
NC(=O)C1(c2cccc(Sc3ccc(-c4ccnn4CC4CC4)cc3)c2)CCOCC1 [Example 6, 4-[3-({4-[1-(cyclopropylmethyl)-1H-pyrazol-5-yl]phenyl}thio)phenyl]tetrahydro-2H-pyran-4-carboxamide]	86.1	225	
C[C@H]1C[C@@](C(N)=O)(c2cccc(Sc3ccc(-c4ccnn4C)c(F)c3)c2F)CCO1 [Example 31, (2S,4R)-4-(2-fluoro-3-(3-fluoro-4-(1-methyl-1H-pyrazol-5-yl)phenylthio)phenyl)-2-methyl-tetrahydro-2H-pyran-4-carboxamide]	15.5	337	
Cn1nccc1C(=O)c1ccc(Sc2cccc(C3(C#N)CCOCC3)c2)cc1 [Example 62, 4-[3-({4-[(1-methyl-1H-pyrazol-5-yl)carbonyl]phenyl}thio)phenyl]tetrahydro-2H-pyran-4-carbonitrile]	2160	1490	
Cn1nccc1-c1ccc(Sc2cccc(C3(C(N)=O)CCOCC3)c2Cl)cc1 [Example 87, 4-(2-chloro-3-{[4-(1-methyl-1H-pyrazol-5-yl)phenyl]thio}phenyl)tetrahydro-2H-pyran-4-carboxamide]	1100	1010	
C[C@H]1C[C@@](C(N)=O)(c2cccc(Sc3ccc(-c4ccnn4C)cc3F)c2F)CCO1 [Example 26, (2S,4R)-4-(2-fluoro-3-(2-fluoro-4-(1-methyl-1H-pyrazol-5-yl)phenylthio)phenyl)-2-methyl-tetrahydro-2H-pyran-4-carboxamide]	28.4	690	
NC(=O)C1(c2cccc(Sc3ccc(-c4ccnn4C4CCCC4)cc3)c2)CCOCC1 [Example 3, 4-(3-{[4-(1-cyclopentyl-1H-pyrazol-5-yl)phenyl]thio}phenyl)tetrahydro-2H-pyran-4-carboxamide]	102	179	
Cn1ncc(Br)c1-c1ccc(Sc2cccc(C3(C(N)=O)CCOCC3)c2)cc1 [Example 76, 4-(3-{[4-(4-bromo-1-methyl-1H-pyrazol-5-yl)phenyl]thio}phenyl)tetrahydro-2H-pyran-4-carboxamide]	108	727	
CC(C)n1nccc1-c1ccc(Sc2cccc(C3(C(N)=O)CCOCC3)c2)cc1 [Example 9]	14.8	208	
Cn1nccc1C(=O)c1ccc(Sc2cccc(C3(C(N)=O)CCOCC3)c2)cn1 [Example 69, 4-[3-({6-[(1-methyl-1H-pyrazol-5-yl)carbonyl]pyridin-3-yl}thio)phenyl]tetrahydro-2H-pyran-4-carboxamide]	1590	3350	
Cn1nccc1Cc1ccc(Sc2cccc(C3(C(N)=O)CCOCC3)c2)cc1 [Example 35, 4-[3-({4-[(1-methyl-1H-pyrazol-5-yl)methyl]phenyl}thio)phenyl]tetrahydro-2H-pyran-4-carboxamide]	313	769	
C[C@H]1C[C@@](C(N)=O)(c2cccc(Sc3ccc(-c4c(Br)cnn4C)cc3)c2F)CCO1 [Example 73, (2S,4R)-4-(3-{[4-(4-bromo-1-methyl-1H-pyrazol-5-yl)phenyl]thio}-2-fluorophenyl)-2-methyltetrahydro-2H-pyran-4-carboxamide]	13.4	672	
